Assay results reported in PubChem BioAssay (NCI).
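Values below derive from 48-hour exposures of cells grown in 96-well plates, with endpoints linearly interpolated between the two concentrations bracketing the appropriate inhibition level. At the GI50, growth is halved. TGI: concentration producing complete growth inhibition.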

Assays:
Assay in all cases: NCI-60 cell line screen, 48 h
NCI-H226 lung = test system: NCI-H226 lung
HL-60(TB) leukemia = test system: HL-60(TB) leukemia
CCRF-CEM leukemia = test system: CCRF-CEM leukemia
MDA-MB-231 breast = test system: MDA-MB-231 breast
HCC-2998 colon = test system: HCC-2998 colon
IGROV1 ovarian = test system: IGROV1 ovarian
HS 578T breast = test system: HS 578T breast
SNB-19 CNS = test system: SNB-19 CNS
SW-620 colon = test system: SW-620 colon
HOP-62 NSCLC = test system: HOP-62 NSCLC
PC-3 prostate = test system: PC-3 prostate
OVCAR-4 ovarian = test system: OVCAR-4 ovarian
RPMI-8226 leukemia = test system: RPMI-8226 leukemia
SN12C renal = test system: SN12C renal
786-0 renal = test system: 786-0 renal
A549 NSCLC = test system: A549 NSCLC
T-47D breast = test system: T-47D breast
OVCAR-8 ovarian = test system: OVCAR-8 ovarian
MCF7 breast = test system: MCF7 breast
SK-OV-3 ovarian = test system: SK-OV-3 ovarian
NCI/ADR-RES ovarian = test system: NCI/ADR-RES ovarian
SK-MEL-2 melanoma = test system: SK-MEL-2 melanoma
NCI-H460 lung = test system: NCI-H460 lung
KM12 colon = test system: KM12 colon
DU-145 prostate = test system: DU-145 prostate
TK-10 renal = test system: TK-10 renal
COLO 205 colon = test system: COLO 205 colon
SF-539 CNS = test system: SF-539 CNS
SNB-75 CNS = test system: SNB-75 CNS
M14 melanoma = test system: M14 melanoma
SK-MEL-28 melanoma = test system: SK-MEL-28 melanoma
OVCAR-5 ovarian = test system: OVCAR-5 ovarian
UACC-257 melanoma = test system: UACC-257 melanoma
SK-MEL-5 melanoma = test system: SK-MEL-5 melanoma
NCI-H23 lung = test system: NCI-H23 lung
HCT-116 colon = test system: HCT-116 colon
A498 renal = test system: A498 renal
SR leukemia = test system: SR leukemia
EKVX NSCLC = test system: EKVX NSCLC
HOP-92 NSCLC = test system: HOP-92 NSCLC
SF-295 CNS = test system: SF-295 CNS
OVCAR-3 ovarian = test system: OVCAR-3 ovarian
U251 CNS = test system: U251 CNS
NCI-H522 lung = test system: NCI-H522 lung
HT29 colon = test system: HT29 colon
MOLT-4 leukemia = test system: MOLT-4 leukemia
MDA-MB-435 = test system: MDA-MB-435
SF-268 CNS = test system: SF-268 CNS
CAKI-1 renal = test system: CAKI-1 renal
MALME-3M melanoma = test system: MALME-3M melanoma
HCT-15 colon = test system: HCT-15 colon
UO-31 renal = test system: UO-31 renal
ACHN renal = test system: ACHN renal
LOX IMVI melanoma = test system: LOX IMVI melanoma
K-562 leukemia = test system: K-562 leukemia
BT-549 breast = test system: BT-549 breast

Question: Which TGI (NCI-H226 lung) does the source give for Oc1c(Cl)c(Cl)c(Cl)c(Cl)c1Cl here?
Answer: 56.9 µM

Question: And the TGI (HL-60(TB) leukemia)?
Answer: 36.9 µM

Question: And the TGI (CCRF-CEM leukemia)?
Answer: 48.3 µM

Question: What does the source list for CCOC(=O)C(NC(=O)c1cccc(Cl)c1)(Nc1ccc(S(=O)(=O)Nc2cc(C)nc(C)n2)cc1)C(F)(F)F (configuration not stated)?
Answer: TGI (MDA-MB-231 breast): > 100 µM; TGI (HCC-2998 colon): > 100 µM; TGI (IGROV1 ovarian): > 100 µM; TGI (HS 578T breast): > 100 µM; TGI (SNB-19 CNS): > 100 µM; TGI (SW-620 colon): > 100 µM; TGI (HOP-62 NSCLC): > 100 µM; TGI (PC-3 prostate): > 100 µM; TGI (OVCAR-4 ovarian): > 100 µM; TGI (RPMI-8226 leukemia): > 100 µM; TGI (SN12C renal): > 100 µM; TGI (786-0 renal): > 100 µM; TGI (A549 NSCLC): > 100 µM; TGI (T-47D breast): > 100 µM; TGI (OVCAR-8 ovarian): > 100 µM; TGI (MCF7 breast): > 100 µM; TGI (NCI-H226 lung): > 100 µM; TGI (SK-OV-3 ovarian): > 100 µM; TGI (HL-60(TB) leukemia): > 100 µM; TGI (NCI/ADR-RES ovarian): > 100 µM; TGI (SK-MEL-2 melanoma): > 100 µM; TGI (NCI-H460 lung): > 100 µM; TGI (KM12 colon): > 100 µM; TGI (DU-145 prostate): > 100 µM; TGI (TK-10 renal): > 100 µM; TGI (COLO 205 colon): > 100 µM; TGI (SF-539 CNS): > 100 µM; TGI (SNB-75 CNS): > 100 µM; TGI (M14 melanoma): > 100 µM; TGI (SK-MEL-28 melanoma): > 100 µM; TGI (OVCAR-5 ovarian): > 100 µM; TGI (UACC-257 melanoma): > 100 µM; TGI (SK-MEL-5 melanoma): > 100 µM; TGI (NCI-H23 lung): > 100 µM; TGI (CCRF-CEM leukemia): > 100 µM; TGI (HCT-116 colon): > 100 µM; TGI (A498 renal): > 100 µM; TGI (SR leukemia): > 100 µM; TGI (EKVX NSCLC): > 100 µM; TGI (HOP-92 NSCLC): > 100 µM; TGI (SF-295 CNS): > 100 µM; TGI (OVCAR-3 ovarian): > 100 µM; TGI (U251 CNS): > 100 µM; TGI (NCI-H522 lung): > 100 µM; TGI (HT29 colon): > 100 µM; TGI (MOLT-4 leukemia): > 100 µM; TGI (MDA-MB-435): > 100 µM; TGI (SF-268 CNS): > 100 µM; TGI (CAKI-1 renal): > 100 µM; TGI (MALME-3M melanoma): > 100 µM; TGI (HCT-15 colon): > 100 µM; TGI (UO-31 renal): > 100 µM; TGI (ACHN renal): > 100 µM; TGI (LOX IMVI melanoma): > 100 µM

Question: Which results are given for O=C(CCCC(=O)N/N=C/c1cc(Cl)ccc1O)N/N=C\c1cc(Cl)ccc1O?
Answer: GI50 (MDA-MB-231 breast): 2.63 µM; TGI (MDA-MB-231 breast): 91.6 µM; GI50 (IGROV1 ovarian): 4.21 µM; TGI (IGROV1 ovarian): > 100 µM; GI50 (HS 578T breast): > 100 µM; TGI (HS 578T breast): > 100 µM; GI50 (SNB-19 CNS): 4.42 µM; TGI (SNB-19 CNS): > 100 µM; GI50 (SW-620 colon): 3.69 µM; TGI (SW-620 colon): > 100 µM; GI50 (HOP-62 NSCLC): 5.05 µM; TGI (HOP-62 NSCLC): > 100 µM; GI50 (PC-3 prostate): 2.68 µM; TGI (PC-3 prostate): > 100 µM; GI50 (OVCAR-4 ovarian): 1.25 µM; TGI (OVCAR-4 ovarian): > 100 µM; GI50 (RPMI-8226 leukemia): 4.67 µM; TGI (RPMI-8226 leukemia): > 100 µM; GI50 (SN12C renal): 4.3 µM; TGI (SN12C renal): > 100 µM; GI50 (786-0 renal): 3.59 µM; TGI (786-0 renal): > 100 µM; GI50 (K-562 leukemia): 2.88 µM; TGI (K-562 leukemia): > 100 µM; GI50 (A549 NSCLC): 3.69 µM; TGI (A549 NSCLC): > 100 µM; GI50 (T-47D breast): 3.23 µM; TGI (T-47D breast): > 100 µM; GI50 (OVCAR-8 ovarian): 2.86 µM; TGI (OVCAR-8 ovarian): > 100 µM; GI50 (MCF7 breast): 2.54 µM; TGI (MCF7 breast): > 100 µM; GI50 (NCI-H226 lung): 6.64 µM; TGI (NCI-H226 lung): 65.7 µM; GI50 (SK-OV-3 ovarian): 5.95 µM; TGI (SK-OV-3 ovarian): > 100 µM; GI50 (HL-60(TB) leukemia): 2.48 µM; TGI (HL-60(TB) leukemia): 8.28 µM; GI50 (NCI/ADR-RES ovarian): 3.44 µM; TGI (NCI/ADR-RES ovarian): > 100 µM; GI50 (SK-MEL-2 melanoma): > 100 µM; TGI (SK-MEL-2 melanoma): > 100 µM; GI50 (NCI-H460 lung): 2.94 µM; TGI (NCI-H460 lung): > 100 µM; GI50 (KM12 colon): 3.98 µM; TGI (KM12 colon): > 100 µM; GI50 (DU-145 prostate): 6.75 µM; TGI (DU-145 prostate): > 100 µM; GI50 (COLO 205 colon): 4.16 µM; TGI (COLO 205 colon): > 100 µM; GI50 (SF-539 CNS): 2.66 µM; TGI (SF-539 CNS): 33.5 µM; GI50 (SNB-75 CNS): 8.16 µM; TGI (SNB-75 CNS): > 100 µM; GI50 (M14 melanoma): 3.21 µM; TGI (M14 melanoma): > 100 µM; GI50 (SK-MEL-28 melanoma): 3.68 µM; TGI (SK-MEL-28 melanoma): > 100 µM; GI50 (OVCAR-5 ovarian): > 100 µM; TGI (OVCAR-5 ovarian): > 100 µM; GI50 (UACC-257 melanoma): 2.71 µM; TGI (UACC-257 melanoma): > 100 µM; GI50 (SK-MEL-5 melanoma): 2.5 µM; TGI (SK-MEL-5 melanoma): > 100 µM; GI50 (NCI-H23 lung): 11.9 µM; TGI (NCI-H23 lung): > 100 µM; GI50 (CCRF-CEM leukemia): 1.25 µM; TGI (CCRF-CEM leukemia): 34.3 µM; GI50 (HCT-116 colon): 3.75 µM; TGI (HCT-116 colon): > 100 µM; GI50 (A498 renal): 55 µM; TGI (A498 renal): > 100 µM; GI50 (SF-295 CNS): 3.74 µM; TGI (SF-295 CNS): > 100 µM; GI50 (OVCAR-3 ovarian): 0.847 µM; TGI (OVCAR-3 ovarian): > 100 µM; GI50 (U251 CNS): 2.31 µM; TGI (U251 CNS): > 100 µM; GI50 (NCI-H522 lung): 3.62 µM; TGI (NCI-H522 lung): > 100 µM; GI50 (BT-549 breast): 7.34 µM; TGI (BT-549 breast): > 100 µM; GI50 (HT29 colon): 21.2 µM; TGI (HT29 colon): > 100 µM; GI50 (MOLT-4 leukemia): 2.52 µM; TGI (MOLT-4 leukemia): 23.2 µM; GI50 (MDA-MB-435): 6.87 µM; TGI (MDA-MB-435): > 100 µM; GI50 (SF-268 CNS): 2.5 µM; TGI (SF-268 CNS): > 100 µM; GI50 (CAKI-1 renal): 1.98 µM; TGI (CAKI-1 renal): > 100 µM; GI50 (HCT-15 colon): 0.574 µM; TGI (HCT-15 colon): > 100 µM; GI50 (UO-31 renal): 1.24 µM; TGI (UO-31 renal): > 100 µM; GI50 (ACHN renal): 1.58 µM; TGI (ACHN renal): > 100 µM; GI50 (LOX IMVI melanoma): 1.69 µM; TGI (LOX IMVI melanoma): 25.4 µM
